≈ marks a conversion by molar mass, not a printed value. One block for each compound: values may come before it. Calls of active or inactive are those of the source. The rule behind the calls is not given here.
Columns and labels:
[1] = system: Mus musculus; assay: Cognitive enhancing effect in scopolamine-induced amnesia NMRI mouse model assessed as increase in recognition index at 1 to 10 mg/kg, ip administered 30 mins prior to scopolamine injection by Y-maze test; type: functional, organism-based; conditions: dose 1-10 mg/kg
[2] = Mutagenicity in Salmonella typhimurium TA1535 in presence of rat liver S9 fraction by AMES test; type: toxicity, subcellular; conditions: salmonella enterica subsp. enterica serovar typhimurium
[3] = Plasma concentration in NMRI mouse at 10 mg/kg, ip measured after 1 hr by HPLC-MS/MS analysis; type: ADME, organism-based
[4] = system: Rattus norvegicus; assay: Reversal of scopolamine induced amnesia in Lister Hooded rat at 0.3 to 10 mg/kg, po administered 25 mins prior to scopolamine injection and measured after 20 mins by rodent touch screen visual discrimination test; type: functional, organism-based; conditions: dose 0.3-10 mg/kg
[5] = system: Rattus norvegicus; assay: Cognitive enhancing effect in Hannover Wistar rat assessed as increase in novel object recognition index at 1 to 10 mg/kg, po administered 30 mins prior to recognition trail by novel object recognition test; type: functional, organism-based; conditions: dose 1-10 mg/kg
[6] = Mutagenicity in Salmonella typhimurium TA1537 in presence of rat liver S9 fraction by AMES test; type: toxicity, subcellular; conditions: salmonella enterica subsp. enterica serovar typhimurium
[7] = Plasma concentration in Wistar rat at 3 mg/kg, ip measured after 35 mins by HPLC-MS/MS analysis; type: ADME, organism-based
[8] = Apparent permeability across apical to basolateral side in vinblastine-treated human Caco-2 cells expressing P-glycoprotein at 1 uM incubated for 120 mins by HPLC analysis; type: ADME
[9] = Plasma concentration in Wistar rat at 10 mg/kg, ip measured after 35 mins by HPLC-MS/MS analysis; type: ADME, organism-based
[10] = Mutagenicity in Salmonella typhimurium TA100 in absence of rat liver S9 fraction by AMES test; type: toxicity; conditions: salmonella enterica subsp. enterica serovar typhimurium
[11] = Drug uptake in NMRI mouse brain at 1 mg/kg, ip measured after 1 hr by HPLC-MS/MS analysis; type: ADME, organism-based; conditions: read-out: Ct
[12] = Ratio of drug level in NMRI mouse brain to plasma at 10 mg/kg, ip measured after 1 hr by HPLC-MS/MS analysis; type: ADME, organism-based; conditions: read-out: BPR
[13] = Mutagenicity in Salmonella typhimurium TA98 in absence of rat liver S9 fraction by AMES test; type: toxicity; conditions: salmonella enterica subsp. enterica serovar typhimurium
[14] = Drug uptake in NMRI mouse brain at 3 mg/kg, ip measured after 1 hr by HPLC-MS/MS analysis; type: ADME, organism-based; conditions: read-out: Ct
[15] = Drug uptake in Wistar rat brain at 10 mg/kg, ip measured after 35 mins by HPLC-MS/MS analysis; type: ADME, organism-based; conditions: read-out: Ct
[16] = Mutagenicity in Salmonella typhimurium TA100 in presence of rat liver S9 fraction by AMES test; type: toxicity, subcellular; conditions: salmonella enterica subsp. enterica serovar typhimurium
[17] = Mutagenicity in Escherichia coli WP2 uvrA in absence of rat liver S9 fraction by AMES test; type: toxicity
[18] = target: 5-hydroxytryptamine receptor 2B (Homo sapiens) (UniProt P41595); assay: Binding affinity to human recombinant 5-HT2B receptor assessed as displacement of radioligand at 10 uM by displacement binding assay
[19] = Mutagenicity in Escherichia coli WP2 uvrA in presence of rat liver S9 fraction by AMES test; type: toxicity, subcellular
[20] = target: Sodium-dependent noradrenaline transporter (Homo sapiens) (UniProt P23975); assay: Displacement of [125I]RTI55 from human recombinant NET expressed in MDCK cells at 10 uM incubated for 3 hrs by radiometric scintillation counting analysis; type: cell-based
[21] = target: Sodium-dependent dopamine transporter (Homo sapiens) (UniProt Q01959); assay: Displacement of [125I]RTI55 from human recombinant DAT expressed in CHO-S cells at 10 uM incubated for 3 hrs by radiometric scintillation counting analysis; type: cell-based
[22] = Plasma concentration in NMRI mouse at 1 mg/kg, ip measured after 1 hr by HPLC-MS/MS analysis; type: ADME, organism-based
[23] = Plasma concentration in NMRI mouse at 3 mg/kg, ip measured after 1 hr by HPLC-MS/MS analysis; type: ADME, organism-based
[24] = Mutagenicity in Salmonella typhimurium TA98 in presence of rat liver S9 fraction by AMES test; type: toxicity, subcellular; conditions: salmonella enterica subsp. enterica serovar typhimurium
[25] = Ratio of drug level in Wistar rat brain to plasma at 1 mg/kg, ip measured after 35 mins by HPLC-MS/MS analysis; type: ADME, organism-based; conditions: read-out: BPR
[26] = Drug uptake in Wistar rat brain at 3 mg/kg, ip measured after 35 mins by HPLC-MS/MS analysis; type: ADME, organism-based; conditions: read-out: Ct
[27] = Ratio of drug level in Wistar rat brain to plasma at 3 mg/kg, ip measured after 35 mins by HPLC-MS/MS analysis; type: ADME, organism-based; conditions: read-out: BPR
[28] = Drug uptake in Wistar rat brain at 1 mg/kg, ip measured after 35 mins by HPLC-MS/MS analysis; type: ADME, organism-based; conditions: read-out: Ct
[29] = Mutagenicity in Salmonella typhimurium TA1535 in absence of rat liver S9 fraction by AMES test; type: toxicity; conditions: salmonella enterica subsp. enterica serovar typhimurium
[30] = Ratio of drug level in NMRI mouse brain to plasma at 1 mg/kg, ip measured after 1 hr by HPLC-MS/MS analysis; type: ADME, organism-based; conditions: read-out: BPR
[31] = Drug uptake in NMRI mouse brain at 10 mg/kg, ip measured after 1 hr by HPLC-MS/MS analysis; type: ADME, organism-based; conditions: read-out: Ct
[32] = Ratio of drug level in NMRI mouse brain to plasma at 3 mg/kg, ip measured after 1 hr by HPLC-MS/MS analysis; type: ADME, organism-based; conditions: read-out: BPR
[33] = Mutagenicity in Salmonella typhimurium TA1537 in absence of rat liver S9 fraction by AMES test; type: toxicity; conditions: salmonella enterica subsp. enterica serovar typhimurium
[34] = Ratio of drug level in Wistar rat brain to plasma at 10 mg/kg, ip measured after 35 mins by HPLC-MS/MS analysis; type: ADME, organism-based; conditions: read-out: BPR
[35] = system: Rattus norvegicus; assay: Cognitive enhancing effect in po dosed Hannover Wistar rat assessed as increase in novel object recognition index administered 30 mins prior to recognition trail by novel object recognition test; type: functional; conditions: 0.5 h, read-out: MED
[36] = system: Mus musculus; assay: Cognitive enhancing effect in ip dosed scopolamine-induced amnesia NMRI mouse model assessed as increase in recognition index administered 30 mins prior to scopolamine injection by Y-maze test; type: functional; conditions: 0.5 h, read-out: MED
[37] = Plasma concentration in Wistar rat at 1 mg/kg, ip measured after 35 mins by HPLC-MS/MS analysis; type: ADME, organism-based
[38] = target: T1, Neuronal acetylcholine receptor subunit alpha-7 (Homo sapiens, UniProt P36544); assay: Positive allosteric modulator activity at human alpha7 nAChR expressed in Flp-In-HEK293 cells co-expressing RIC-3 assessed as potentiation of PNU282987-induced calcium influx measured after 10 mins by FLIPR assay; type: cell-based, Flp-In-293; conditions: read-out: EC50
[39] = target: T1, Neuronal acetylcholine receptor subunit alpha-7; assay: Positive allosteric modulator activity at human alpha7 nAChR expressed in Flp-In-HEK293 cells co-expressing RIC-3 assessed as potentiation of PNU282987-induced calcium influx at 1 uM measured after 10 mins by FLIPR assay; type: cell-based; conditions: Flp-In-293
[40] = Kinetic solubility of compound; type: physicochemical; conditions: read-out: Kinetic_solubility
[41] = Metabolic stability in human liver microsomes assessed as intrinsic clearance at 1 uM measured per mg protein upto 40 mins; type: ADME, Microsome; conditions: read-out: CLH
[42] = Metabolic stability in Wistar rat liver microsomes assessed as intrinsic clearance at 1 uM measured per mg protein upto 40 mins; type: ADME, Microsome; conditions: read-out: CLH
[43] = Metabolic stability in NMRI mouse liver microsomes assessed as intrinsic clearance at 1 uM measured per mg protein upto 40 mins; type: ADME, Microsome; conditions: read-out: CLH

T1 sequence (P36544 whole entry): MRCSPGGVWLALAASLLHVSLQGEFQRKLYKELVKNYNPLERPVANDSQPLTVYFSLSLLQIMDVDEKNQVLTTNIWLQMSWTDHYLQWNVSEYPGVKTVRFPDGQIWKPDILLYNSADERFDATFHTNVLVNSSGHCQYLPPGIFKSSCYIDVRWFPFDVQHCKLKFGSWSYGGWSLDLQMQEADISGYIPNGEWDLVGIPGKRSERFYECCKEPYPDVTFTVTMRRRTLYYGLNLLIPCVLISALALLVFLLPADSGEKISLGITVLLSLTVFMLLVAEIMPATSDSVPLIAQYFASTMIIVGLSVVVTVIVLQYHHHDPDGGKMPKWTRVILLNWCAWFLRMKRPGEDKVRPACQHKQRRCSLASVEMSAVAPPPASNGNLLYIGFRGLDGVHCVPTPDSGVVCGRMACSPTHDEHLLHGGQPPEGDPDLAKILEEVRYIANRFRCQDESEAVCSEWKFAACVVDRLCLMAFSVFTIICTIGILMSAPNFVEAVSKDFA
Chain of Sodium-dependent noradrenaline transporter (Homo sapiens) (P23975 whole entry): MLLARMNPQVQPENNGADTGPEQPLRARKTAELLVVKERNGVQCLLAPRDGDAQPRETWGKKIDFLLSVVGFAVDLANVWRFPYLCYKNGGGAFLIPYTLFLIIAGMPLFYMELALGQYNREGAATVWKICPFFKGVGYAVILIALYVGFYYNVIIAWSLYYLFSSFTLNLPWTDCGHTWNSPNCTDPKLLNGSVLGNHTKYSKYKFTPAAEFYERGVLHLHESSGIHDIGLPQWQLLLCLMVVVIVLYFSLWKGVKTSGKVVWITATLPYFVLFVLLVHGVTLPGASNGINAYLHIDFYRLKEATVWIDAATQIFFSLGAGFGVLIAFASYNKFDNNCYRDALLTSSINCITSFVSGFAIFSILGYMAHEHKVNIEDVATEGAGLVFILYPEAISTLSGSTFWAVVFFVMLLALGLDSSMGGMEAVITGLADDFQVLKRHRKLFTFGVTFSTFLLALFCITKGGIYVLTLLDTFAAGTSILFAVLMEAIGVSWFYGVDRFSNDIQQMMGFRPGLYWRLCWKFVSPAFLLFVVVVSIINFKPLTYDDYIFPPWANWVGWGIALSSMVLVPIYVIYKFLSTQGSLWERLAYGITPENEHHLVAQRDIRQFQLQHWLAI
Chain of Sodium-dependent dopamine transporter (Homo sapiens) (Q01959 whole entry): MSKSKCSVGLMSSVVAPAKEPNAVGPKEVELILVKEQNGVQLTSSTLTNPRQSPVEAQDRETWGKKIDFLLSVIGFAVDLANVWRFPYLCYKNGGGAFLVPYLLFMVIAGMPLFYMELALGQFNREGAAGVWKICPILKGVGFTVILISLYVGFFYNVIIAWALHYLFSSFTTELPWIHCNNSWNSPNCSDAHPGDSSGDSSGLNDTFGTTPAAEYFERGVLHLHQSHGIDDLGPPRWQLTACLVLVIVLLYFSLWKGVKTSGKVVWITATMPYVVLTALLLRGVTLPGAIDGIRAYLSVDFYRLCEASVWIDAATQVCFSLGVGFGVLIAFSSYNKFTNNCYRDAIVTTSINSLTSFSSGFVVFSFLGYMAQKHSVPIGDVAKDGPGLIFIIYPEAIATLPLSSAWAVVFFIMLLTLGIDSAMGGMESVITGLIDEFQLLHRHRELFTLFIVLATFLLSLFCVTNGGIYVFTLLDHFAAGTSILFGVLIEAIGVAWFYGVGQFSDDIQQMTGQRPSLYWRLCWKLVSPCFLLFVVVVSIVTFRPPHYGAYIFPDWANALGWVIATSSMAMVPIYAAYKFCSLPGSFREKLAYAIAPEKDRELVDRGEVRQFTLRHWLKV
Chain of 5-hydroxytryptamine receptor 2B (Homo sapiens) (P41595 whole entry): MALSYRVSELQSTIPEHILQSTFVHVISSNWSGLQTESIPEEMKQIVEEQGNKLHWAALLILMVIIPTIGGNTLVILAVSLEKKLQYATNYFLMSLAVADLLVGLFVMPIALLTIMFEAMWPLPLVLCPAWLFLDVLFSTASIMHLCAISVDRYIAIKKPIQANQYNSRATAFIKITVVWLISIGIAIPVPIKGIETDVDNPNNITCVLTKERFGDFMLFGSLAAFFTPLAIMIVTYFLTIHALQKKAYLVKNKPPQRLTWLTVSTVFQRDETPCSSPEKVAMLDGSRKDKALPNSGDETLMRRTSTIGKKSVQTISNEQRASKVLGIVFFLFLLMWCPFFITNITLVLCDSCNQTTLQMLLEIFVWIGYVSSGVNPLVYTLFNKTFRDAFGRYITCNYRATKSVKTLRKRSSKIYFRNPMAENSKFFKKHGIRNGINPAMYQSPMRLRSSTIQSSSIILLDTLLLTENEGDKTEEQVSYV

SMILES: O=C(NCc1ccc2[nH]ccc2c1)N1CC(COc2ccc(C(F)(F)F)cc2)C1
- Activity [1]: Active
- Activity [2]: Non-Toxic
- concentration at 1 h [3]: 9470 nM
- Activity [4]: Active
- Activity [5]: Active
- Activity [6]: Non-Toxic
- concentration at 35 min [7]: 2220 nM
- Papp A→B at 2 h, 1 µM [8]: 55 ×10⁻⁶ cm/s
- concentration at 35 min [9]: 8020 nM
- Activity [10]: Non-Toxic
- concentration at 1 h [11]: 673 nM
- Kp at 1 h [12]: 1.06
- Activity [13]: Non-Toxic
- concentration at 1 h [14]: 2210 nM
- concentration at 35 min [15]: 11100 nM
- Activity [16]: Non-Toxic
- Activity [17]: Non-Toxic
- inhibition [18]: > 50%
- Activity [19]: Non-Toxic
- inhibition [20]: > 50%
- inhibition [21]: > 50%
- concentration at 1 h [22]: 647 nM
- concentration at 1 h [23]: 2270 nM
- Activity [24]: Non-Toxic
- Kp at 35 min [25]: 1.43
- concentration at 35 min [26]: 3110 nM
- Kp at 35 min [27]: 1.4
- concentration at 35 min [28]: 1010 nM
- Activity [29]: Non-Toxic
- Kp at 1 h [30]: 1.04
- concentration at 1 h [31]: 9920 nM
- Kp at 1 h [32]: 0.99
- Activity [33]: Non-Toxic
- Kp at 35 min [34]: 1.38
- minimal effective dose [35]: 1 mg/kg
- minimal effective dose [36]: 1 mg/kg
- concentration at 35 min [37]: 746 nM

SMILES: Cc1ccc(O[C@H]2CC[C@@H](C(=O)NCc3ccc4c(ccn4C)c3)CC2)cc1
- Activity [39]: 16%

SMILES: Cc1ccc(Oc2ccc(C(=O)C(=O)Nc3ccc4c(ccn4C)c3)cn2)cc1
- Activity [1]: Active
- concentration at 1 h [3]: 1260 nM
- solubility kinetic [40]: 3 µM (≈ 1.16 µg/mL)
- microsomal CLint at 1 µM [41]: 51 µL/min/mg
- concentration at 1 h [11]: 108 nM
- EC50 [38]: 130 nM
- Kp at 1 h [12]: 1.53
- concentration at 1 h [14]: 492 nM
- microsomal CLint at 1 µM [42]: 59 µL/min/mg
- concentration at 1 h [22]: 104 nM
- concentration at 1 h [23]: 417 nM
- microsomal CLint at 1 µM [43]: 33 µL/min/mg
- Kp at 1 h [30]: 1.05
- concentration at 1 h [31]: 1930 nM
- Kp at 1 h [32]: 1.17

More lines, main results first:

- concentration at 1 h [3]: 653 nM
- concentration at 1 h [11]: 120 nM
- EC50 [38]: 120 nM
- Kp at 1 h [12]: 1.96
- concentration at 1 h [14]: 297 nM
- concentration at 1 h [22]: 63 nM
- concentration at 1 h [23]: 170 nM
- Kp at 1 h [30]: 1.95
- concentration at 1 h [31]: 1290 nM
- Kp at 1 h [32]: 1.74
SMILES: Cc1ccc(OC2CCN(C(=O)C(=O)Nc3ccc4c(ccn4C)c3)CC2)cc1
- Activity [1]: Active

- Activity [39]: 13%
SMILES: Cc1ccc(OC2CCCN(C(=O)C(=O)Nc3ccc4c(ccn4C)c3)CC2)cc1 (stereo not given)
